Laboratory results: patent US9856279B2 (AGIOS PHARMACEUTICALS, INC, priority 2011, dated 2018)

target: IDH1 R132H (Homo sapiens, UniProt O75874, R132H); assay: Assay for IDH1 R132H inhibitors (NADPH/aKG, resazurin detection); format: biochemical; conditions: Table 3; enzyme assay, 50 minutes at room temperature; read-out: IC50 (IDH1 R132H Inhibition)
Description: Assays were conducted in a volume of 76 μl assay buffer (150 mM NaCl, 10 mM MgCl2, 20 mM Tris pH 7.5, 0.03% bovine serum albumin) as follows in a standard 384-well plate: To 25 ul of substrate mix (8 uM NADPH, 2 mM aKG), 1 μl of test compound was added in DMSO. The plate was centrifuged briefly, and then 25 μl of enzyme mix was added (0.2 μg/ml IDH1 R132H) followed by a brief centrifugation and shake at 100 RPM. The reaction was incubated for 50 minutes at room temperature, then 25 μl of detection mix (30 μM resazurin, […]) was added and the mixture further incubated for 5 minutes at room temperature. The conversion of resazurin to resorufin was detected by fluorescent spectroscopy at Ex544 Em590 c/o 590.

Chain of IDH1 R132H (O75874 whole entry R132H): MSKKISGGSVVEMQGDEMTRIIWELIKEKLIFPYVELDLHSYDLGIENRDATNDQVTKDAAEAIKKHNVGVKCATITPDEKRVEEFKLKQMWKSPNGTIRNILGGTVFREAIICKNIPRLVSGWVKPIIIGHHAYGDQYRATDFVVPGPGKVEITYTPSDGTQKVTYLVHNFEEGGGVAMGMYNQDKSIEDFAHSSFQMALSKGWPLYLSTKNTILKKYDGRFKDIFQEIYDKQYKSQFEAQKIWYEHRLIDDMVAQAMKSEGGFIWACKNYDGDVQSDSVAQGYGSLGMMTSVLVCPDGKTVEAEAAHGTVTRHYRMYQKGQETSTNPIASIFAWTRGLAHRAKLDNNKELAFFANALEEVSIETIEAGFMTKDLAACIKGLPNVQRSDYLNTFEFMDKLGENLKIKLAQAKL

| SMILES | IC50 |
| --- | --- |
| Cc1cccc(-c2cc(C#N)c(N3CCN(C(=O)c4ccoc4)[C@H](C)C3)nc2C(C)C)c1 [Compound 191] | ≤ 1 µM |
| CC(C)c1cc(-c2cccc(F)c2)c(C#N)c(N2CCN(C(=O)c3ccco3)C(C)C2)n1 (centres unmarked) [Compound 127, 4-(3-fluorophenyl)-2-(4-(furan-2-carbonyl)-3-methylpiperazin-1-yl)-6-isopropylnicotinonitrile] | 5 to 15 µM |
| CC(C)c1cc(-c2ccccc2)c(C#N)c(N2C[C@@H](C)N(C(=O)c3ccccc3)[C@@H](C)C2)n1 [Compound 101, 2-((3S,5R)-4-benzoyl-3,5-dimethylpiperazin-1-yl)-6-isopropyl-4-phenylnicotinonitrile] | 1 to 5 µM |
| COCCC(=O)N1CCN(c2nc(C(C)C)c(-c3cc4ccccc4o3)cc2C#N)C[C@H]1C [Compound 209, (R)-5-(benzofuran-2-yl)-6-isopropyl-2-(4-(3-methoxypropanoyl)-3-methylpiperazin-1-yl)nicotinonitrile] | 1 to 5 µM |
| Cc1occc1C(=O)N1CCN(c2nc(C(C)C)c(-c3ccc(C(F)(F)F)cc3)cc2C#N)C[C@H]1C [Compound 201, (R)-6-isopropyl-2-(3-methyl-4-(2-methylfuran-3-carbonyl)piperazin-1-yl)-5-(4-(trifluoromethyl)phenyl)-nicotinonitrile] | 1 to 5 µM |
| CC(C)c1cc(-c2cccc(F)c2)c(C#N)c(N2CC(C)N(C(=O)c3ccoc3)C(C)C2)n1 (centres unmarked) [Compound 134, 4-(3-fluorophenyl)-2-(4-(furan-3-carbonyl)-3,5-dimethylpiperazin-1-yl)-6-isopropylnicotinonitrile] | 1 to 5 µM |
| COc1ccccc1-c1cc(C(C)C)nc(N2CCN(C(=O)c3ccco3)CC2)c1C#N [Compound 104, 2-(4-(furan-2-carbonyl)piperazin-1-yl)-6-isopropyl-4-(2-methoxyphenyl)nicotinonitrile] | 5 to 15 µM |
| CC(C)c1cc(-c2cccc(F)c2)c(C#N)c(N2CCN(C(=O)c3ccoc3)[C@H](C)C2)n1 [Compound 156] | 1 to 5 µM |

The remaining lines, values ahead:

| IC50 | SMILES |
| --- | --- |
| 1 to 5 µM | COCCC(=O)N1CCN(c2nc(C(C)C)c(-c3ccc(Cl)cc3)cc2C#N)C[C@H]1C [Compound 215, (R)-5-(4-chlorophenyl)-6-isopropyl-2-(4-(3-methoxypropanoyl)-3-methylpiperazin-1-yl)nicotinonitrile] |
| 1 to 5 µM | CC[C@@H]1CN(c2nc(C(C)C)c(-c3ccccc3)cc2C#N)CCN1C(=O)c1ccoc1C [Compound 173, (R)-2-(3-ethyl-4-(2-methylfuran-3-carbonyl)piperazin-1-yl)-6-isopropyl-5-phenylnicotinonitrile] |
| 1 to 5 µM | CC1CN(c2nc(C3CCCCC3)cc(-c3ccccc3)c2C#N)CCN1C(=O)c1ccoc1 (centres unmarked) [Compound 138, 6-cyclohexyl-2-(4-(furan-3-carbonyl)-3-methylpiperazin-1-yl)-4-phenylnicotinonitrile] |
| 1 to 5 µM | COc1ccccc1-c1cc(C(C)C)nc(N2CCN(C(=O)c3ccccc3)CC2)c1C#N [Compound 105, 2-(4-benzoylpiperazin-1-yl)-6-isopropyl-4-(2-methoxyphenyl)nicotinonitrile] |
| ≤ 1 µM | COCCC(=O)N1CCN(c2nc(C3CC3)c(-c3ccc4c(c3)OCO4)c(C)c2C#N)C[C@H]1C [Compound 261, (R)-5-(benzo[d][1,3]dioxol-5-yl)-6-cyclopropyl-2-(4-(3-methoxypropanoyl)-3-methylpiperazin-1-yl)-4-methylnicotinonitrile] |
| 1 to 5 µM | COCCC(=O)N1CCN(c2nc(C3CC3)c(-c3ccc(OC)c(OC)c3)cc2C#N)C[C@H]1C [Compound 237, (R)-6-cyclopropyl-5-(3,4-dimethoxyphenyl)-2-(4-(3-methoxypropanoyl)-3-methylpiperazin-1-yl)nicotinonitrile] |
| ≤ 1 µM | COCCC(=O)N1CCN(c2nc(C3CC3)c(-c3cccc(F)c3)cc2C#N)C[C@H]1C [Compound 229, (R)-6-cyclopropyl-5-(3-fluorophenyl)-2-(4-(3-methoxypropanoyl)-3-methylpiperazin-1-yl)nicotinonitrile] |
| 1 to 5 µM | CC(=O)Oc1ccccc1-c1cc(C(C)C)nc(N2CCN(C(=O)c3ccoc3)[C@H](C)C2)c1C#N [Compound 162, (R)-2-(3-cyano-2-(4-(furan-3-carbonyl)-3-methylpiperazin-1-yl)-6-isopropylpyridin-4-yl)phenylacetate] |

same assay, conditions: enzyme assay of Example 12; read-out: IDH1R132H IC50

| SMILES | IC50 |
| --- | --- |
| COCCC(=O)N1CCN(c2nc(C3CC3)c(-c3cccc(OC)c3F)c(C)c2C#N)C[C@H]1C [Compound 324, (R)-6-cyclopropyl-5-(2-fluoro-3-methoxy-phenyl)-2-[4-(3-methoxy-propionyl)-3-methyl-piperazin-1-yl]-4-methyl-nicotinonitrile] | 0.5 to 1 µM |
| COCCC(=O)N1CCN(c2nc(C3CC3)c(-c3ccc(OCC4CC4)cc3)c(C)c2C#N)C[C@H]1C [Compound 336, (R)-6-cyclopropyl-5-(4-cyclopropylmethoxy-phenyl)-2-[4-(3-methoxy-propionyl)-3-methyl-piperazin-1-yl]-4-methyl-nicotinonitrile] | 0.5 to 1 µM |
| COCCC(=O)N1CCN(c2nc(C3CC3)c(-c3ccc4cn[nH]c4c3)cc2C#N)C[C@H]1C [Compound 385, (R)-6-cyclopropyl-5-(1H-indazol-6-yl)-2-(4-(3-methoxypropanoyl)-3-methylpiperazin-1-yl)nicotinonitrile] | 0.5 to 1 µM |
| COCCC(=O)N1CCN(c2nc(C3CC3)c(-c3cccc(C(=O)N4CCCC4)c3)c(C)c2C#N)C[C@H]1C [Compound 332, (R)-6-cyclopropyl-2-[4-(3-methoxy-propionyl)-3-methyl-piperazin-1-yl]-4-methyl-5-[3-(pyrrolidine-1-carbonyl)-phenyl]-nicotinonitrile] | 0.5 to 1 µM |
| COCCC(=O)N1CCN(c2nc(C3CC3)c(-c3cccc4nonc34)cc2C#N)C[C@H]1C [Compound 437, (R)-5-benzo[1,2,5]oxadiazol-4-yl-6-cyclopropyl-2-[4-(3-methoxy-propionyl)-3-methyl-piperazin-1-yl]-nicotinonitrile] | 0.5 to 1 µM |
| COCCC(=O)N1CCN(c2nc(C3CC3)c(-c3cnnc(OS(=O)(=O)C(F)(F)F)c3)cc2C#N)C[C@H]1C [Compound 614, (R)-5-(5-cyano-2-cyclopropyl-6-(4-(3-methoxypropanoyl)-3-methylpiperazin-1-yl)pyridin-3-yl)pyridazin-3-yl trifluoromethanesulfonate] | < 0.5 µM |
| COCCC(=O)N1CCN(c2nc(C3CC3)c(-c3cccc(NC(=O)/C=C/CN(C)C)c3)cc2C#N)C[C@H]1C [Compound 441, (R,E)-N-(3-(5-cyano-2-cyclopropyl-6-(4-(3-methoxypropanoyl)-3-methylpiperazin-1-yl)pyridin-3-yl)phenyl)-4-(dimethylamino)but-2-enamide] | 0.5 to 1 µM |

More lines, now with the values ahead:

| IC50 | SMILES |
| --- | --- |
| 0.5 to 1 µM | N#Cc1cc(-c2cccc3cnccc23)c(C2CC2)nc1N1CCN(C(=O)CC(F)(F)F)C(C(F)(F)F)C1 (centres unmarked) [Compound 399, 6-cyclopropyl-5-(isoquinolin-5-yl)-2-(3-(trifluoromethyl)-4-(3,3,3-trifluoropropanoyl)piperazin-1-yl)nicotinonitrile] |
| < 0.5 µM | C=Cc1cc(-c2cc(C#N)c(N3CCN(C(=O)CC4CCC(=O)O4)[C@H](C4CC4)C3)nc2C2CC2)ccn1 (stereo partly drawn) [Compound 802, 2-cyclopropyl-6-((3R)-3-cyclopropyl-4-(2-(5-oxotetrahydrofuran-2-yl)acetyl)piperazin-1-yl)-2′-vinyl-[3,4′-bipyridine]-5-carbonitrile] |
| < 0.5 µM | C=Cc1cc(-c2c(C3CC3)nc(N3CCN(C(=O)CCC4CCC4)[C@H](C4CC4)C3)c(C#N)c2C)ccn1 [Compound 826, (R)-6-(4-(3-cyclobutylpropanoyl)-3-cyclopropylpiperazin-1-yl)-2-cyclopropyl-4-methyl-2′-vinyl-3,4′-bipyridine-5-carbonitrile] |
| 0.5 to 1 µM | COCCC(=O)N1CCN(c2nc(C3CC3)c(Nc3cnc4ccccc4c3)cc2C#N)C[C@H]1C [Compound 339, (R)-6-cyclopropyl-2-(4-(3-methoxypropanoyl)-3-methylpiperazin-1-yl)-5-(quinolin-3-ylamino)nicotinonitrile] |
| 0.5 to 1 µM | C#Cc1cc(-c2cc(C#N)c(N3CCN(C(=O)C4CC4)[C@H](C)C3)nc2C2CC2)ccn1 [Compound 593, (R)-6-(4-(cyclopropanecarbonyl)-3-methylpiperazin-1-yl)-2-cyclopropyl-2′-ethynyl-3,4′-bipyridine-5-carbonitrile] |
| < 0.5 µM | C=Cc1cnc2c(-c3cc(C#N)c(N4CCN(C(=O)/C=C/CCO)[C@H](C(C)C)C4)nc3C3CC3)cccc2n1 [Compound 790, (R)-6-cyclopropyl-2-(4-(5-hydroxypent-2-enoyl)-3-isopropylpiperazin-1-yl)-5-(2-vinylquinoxalin-5-yl)nicotinonitrile] |
| < 0.5 µM | C=Cc1ccnc(Nc2cc(C#N)c(N3CCN(C(=O)C[C@H]4CCCO4)[C@H](C4CC4)C3)nc2C2CC2)c1 [Compound 828] |
| 0.5 to 1 µM | N#Cc1cc(-c2cccc3c2NC(=O)C3=O)c(C2CC2)nc1N1CCN(C(=O)C2CC2)[C@H](C2CC2)C1 [Compound 513, (R)-2-(4-(cyclopropanecarbonyl)-3-cyclopropylpiperazin-1-yl)-6-cyclopropyl-5-(2,3-dioxoindolin-7-yl)nicotinonitrile] |
| < 0.5 µM | N#Cc1cc(-c2cnnc(O)c2)c(C2CC2)nc1N1CCN(C(=O)C2CC2)[C@H](C2CC2)C1 [Compound 616, (R)-2-(4-(cyclopropanecarbonyl)-3-cyclopropylpiperazin-1-yl)-6-cyclopropyl-5-(6-hydroxypyridazin-4-yl)nicotinonitrile] |
